Substitutions are numbered along the chain they refer to. Several values for one entry are separate records, joined by “and”; a condition that tells them apart may be missing. Equal entries are not always repeated.
What was measured:
MDA-MB-231 cells = test: Nude mouse xenograft model; format: in vivo, nude mice; settings: 15 mg/kg i.p. every 3 d
GPR126 = target: T1, GPR126 (Homo sapiens, UniProt Q86SQ4); settings: angiotensin II and AT1R as controls
T1 sequence (Q86SQ4 38-1221): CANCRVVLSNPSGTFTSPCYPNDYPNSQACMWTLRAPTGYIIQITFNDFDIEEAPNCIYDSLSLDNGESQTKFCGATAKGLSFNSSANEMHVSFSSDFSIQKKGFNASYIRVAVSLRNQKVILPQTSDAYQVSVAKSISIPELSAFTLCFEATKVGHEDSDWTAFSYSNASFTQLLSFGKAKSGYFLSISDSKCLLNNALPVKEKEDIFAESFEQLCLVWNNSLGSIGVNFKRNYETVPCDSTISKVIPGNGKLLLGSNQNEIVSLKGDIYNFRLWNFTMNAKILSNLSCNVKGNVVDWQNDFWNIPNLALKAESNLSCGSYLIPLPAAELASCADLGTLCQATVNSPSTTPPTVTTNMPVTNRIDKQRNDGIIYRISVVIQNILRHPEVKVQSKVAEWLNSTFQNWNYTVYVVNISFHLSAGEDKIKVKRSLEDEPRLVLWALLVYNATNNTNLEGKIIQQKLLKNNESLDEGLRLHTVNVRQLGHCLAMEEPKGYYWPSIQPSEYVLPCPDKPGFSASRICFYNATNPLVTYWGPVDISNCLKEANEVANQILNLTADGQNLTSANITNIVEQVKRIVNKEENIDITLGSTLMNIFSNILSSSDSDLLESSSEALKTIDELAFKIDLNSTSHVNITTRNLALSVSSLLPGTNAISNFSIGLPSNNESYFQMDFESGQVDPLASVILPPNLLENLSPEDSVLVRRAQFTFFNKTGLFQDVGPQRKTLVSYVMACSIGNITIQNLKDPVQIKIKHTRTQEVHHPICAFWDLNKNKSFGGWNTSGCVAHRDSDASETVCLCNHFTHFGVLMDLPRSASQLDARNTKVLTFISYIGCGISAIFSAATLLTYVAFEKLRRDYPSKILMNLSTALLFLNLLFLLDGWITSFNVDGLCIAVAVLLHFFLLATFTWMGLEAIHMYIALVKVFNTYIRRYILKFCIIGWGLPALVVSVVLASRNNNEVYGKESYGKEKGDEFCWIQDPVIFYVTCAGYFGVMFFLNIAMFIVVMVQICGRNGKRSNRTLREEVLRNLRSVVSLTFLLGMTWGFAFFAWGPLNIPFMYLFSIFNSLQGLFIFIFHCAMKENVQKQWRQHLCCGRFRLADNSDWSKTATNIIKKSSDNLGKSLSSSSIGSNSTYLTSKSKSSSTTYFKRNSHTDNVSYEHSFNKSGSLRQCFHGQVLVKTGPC

GPR126-β = target: T2, GPR126-β (Homo sapiens, UniProt Q86SQ4); test: GloSensor cAMP inhibition assay, GPR126-β construct; format: cell-based
T2 sequence (Q86SQ4 841-1221 limits assumed): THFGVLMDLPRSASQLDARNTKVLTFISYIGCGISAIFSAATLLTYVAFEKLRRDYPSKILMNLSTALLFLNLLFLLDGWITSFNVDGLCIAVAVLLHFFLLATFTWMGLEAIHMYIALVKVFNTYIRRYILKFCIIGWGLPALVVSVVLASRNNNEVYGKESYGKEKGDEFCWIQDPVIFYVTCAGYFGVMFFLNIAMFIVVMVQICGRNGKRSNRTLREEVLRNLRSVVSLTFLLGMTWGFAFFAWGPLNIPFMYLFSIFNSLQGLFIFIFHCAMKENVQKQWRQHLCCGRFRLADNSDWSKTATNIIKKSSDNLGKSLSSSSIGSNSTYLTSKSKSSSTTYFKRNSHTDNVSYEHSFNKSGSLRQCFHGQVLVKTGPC

full-length GPR126 [1] = target: T3, full-length GPR126 (Homo sapiens, UniProt Q86SQ4, R1057Q); test: cell-based; format: cell-based
T3 sequence (Q86SQ4 38-1221 R1057Q): T1 sequence (Q86SQ4 38-1221) with R1020Q

full-length GPR126 [2] = test: cell-based; format: cell-based, human
full-length GPR126 [3] = target: T4, full-length GPR126 (Homo sapiens, UniProt Q86SQ4); test: cell-based; format: cell-based
T4 sequence (Q86SQ4 38-1221): T1 sequence (Q86SQ4 38-1221)

In the case of CC(=O)[C@H]1CC[C@H]2[C@@H]3CCC4=CC(=O)CC[C@]4(C)[C@H]3CC[C@]12C [progesterone], the “rates of mouse weight gain between groups” value (MDA-MB-231 cells) is reported as “not significantly different”, the “tumor growth in the Sh-CTRL group” value (MDA-MB-231 cells; 32 d) is reported as “significantly enhanced” and the “tumor growth in the Sh-GPR126-1 group” value (MDA-MB-231 cells; 32 d) is reported as “minimal effects”. The “size and weight of tumors in the Sh-CTRL group” value (MDA-MB-231 cells; after 32 d) was “significantly increased”, the “size and weight of tumors in the Sh-GPR126-1 group” value (MDA-MB-231 cells; after 32 d) was “no significant effects” and the “β-arrestin-2 recruitment of GPR126” value (GPR126) was “no obvious”. For the same compound, the “EC50 for GPR126-β lower than that of full-length GPR126” value (GPR126-β) was roughly 10 fold, the “potency in cAMP inhibition assay with GPR126 R1057Q mutant” value (full-length GPR126 [1]) was “decreased the potency” and the “GPR126 activity in cAMP inhibition assay with Ala mutants” value (full-length GPR126 [2]) was “significantly impaired”. For the same compound, the “able to inhibit Fsk-induced cAMP accumulation” value (full-length GPR126 [3]) was “able to inhibit” and the EC50 (full-length GPR126 [3]; EC50, cAMP inhibition, full-length GPR126) was 540 nM and ~540 nM.

Reference: article PMC9169622 (Proceedings of the National Academy of Sciences of the …, 2022)
